By IC50 is commonly meant the concentration at which inhibition is half-maximal. The term melting point denotes the temperature, or range, at which the solid turns liquid.

Some results are limits rather than exact numbers.

One data set has as its system tubulin. Details: method as in Miller et al., 1997. As to conditions: ref Miller et al., 1997; read-out: IC50, inhibition of polymerization of tubulin; cited from earlier work.
For data set [1], the system named is MCF-7 (breast cancer) cells. Put plainly: MTT cell proliferation assay, MCF-7. Format: cell-based. The following applies: Homo sapiens, MCF7, MCF-7 (ER +ve), 48 h, read-out: IC50 values (mean ± SEM) MCF-7. Background: Formazan colour is commonly taken as a measure of viable cells.
Experimental: (§3) MCF-7, MDA-MB231, and HEK293 cell lines were purchased from ATCC (Manassas, VA, United States). […] They were maintained in Dulbecco’s modified Eagle medium (DMEM) supplemented with 10% fetal bovine serum (FBS). Cells were cultured at 37°C and 5% CO2. Before the experiments, cells were cultured in phenol red-free DMEM supplemented with 10% charcoal stripped fetal bovine serum.
The test system of data set [2] is HeLa (cervical cancer) cells. Briefly: MTT cell proliferation assay, HeLa. Format: cell-based. As to conditions: Homo sapiens, 48 h, read-out: IC50 values (mean ± SEM) HeLa. As to the method: (§1) We conducted an in vitro MTT assay to evaluate the anti-cancer activity of the synthesized neo-tanshinlactone–chalcone hybrid compounds, 26–37, against four human cancer cell lines, namely, MCF-7 (breast cancer), MDA-MB-231 (breast cancer), Ishikawa (endometrial cancer), and HeLa (cervical cancer). The toxicity of the hybrid molecules on the normal human embryonic kidney cell line HEK-293 was also evaluated.
(§2) The synthesized hybrid compounds were tested for their anti-cancer activity using the MTT reduction assay on 2.5 × 10^3 cells per well that were seeded in 100 µL DMEM supplemented with 10% FBS in each well of 96-well microculture plates. After seeding, the cells were incubated for 24 h at 37°C in a CO2 incubator. The required concentrations of the compounds were achieved by diluting the solutions in the culture medium. The media was removed from the wells after 48 h, and 100 µL of MTT (0.5 mg/mL) was added to each well. The plates were then incubated for an additional 3 h. After carefully removing the supernatant from each well, the formazan crystals were dissolved in 100 µL of DMSO. The absorbance was then recorded at a wavelength of 540 nm ([Saquib et al., 2021]; [Gupta et al., 2022]; [Iqbal et al., 2023])

For data set [3], the system named is Ishikawa (endometrial cancer) cells. Briefly: MTT cell proliferation assay, Ishikawa. In kind it is cell-based. The following applies: Homo sapiens, 48 h, read-out: IC50 values (mean ± SEM) Ishikawa. The procedure: as §1
MCF-7, MDA-MB231, and HEK293 cell lines were purchased from ATCC (Manassas, VA, United States). Ishikawa cell lines were obtained from the European Collection of Cell Cultures. They were maintained in Dulbecco’s modified Eagle medium (DMEM) supplemented with 10% fetal bovine serum (FBS). Cells were cultured at 37°C and 5% CO2. Before the experiments, cells were cultured in phenol red-free DMEM supplemented with 10% charcoal stripped fetal bovine serum.
as §2

Data set [4] relates to MDA-MB-231 (breast cancer) cells. Briefly: MTT cell proliferation assay, MDA-MB-231. In kind it is cell-based. As to conditions: Homo sapiens, MDA-MB-231 (ER -ve), 48 h, read-out: IC50 values (mean ± SEM) MDA-MB-231.
Experimental: as §3
The subject of data set [5] is normal human embryonic kidney cell line HEK-293. Put plainly: MTT assay, toxicity on normal cell line HEK-293. Format: cell-based. As to conditions: HEK293, normal HEK-293 cells (toxicity), 48 h, read-out: IC50 values (mean ± SEM) HEK-293.
Experimental: as §3

With `COc1cc2c(ccc1=O)[C@H]1CC[C@]3(C)[C@@H](O)CC[C@H]3[C@@H]1CC2` [2-Methoxyestradiol–colchicine hybrid A], the IC50 in the data set on tubulin was 2.1 µM.

With `COc1cc2c(cc1O)CC[C@@H]1[C@@H]2CC[C@]2(C)[C@@H](O)CC[C@@H]12` [2-methoxyestradiol (2-ME), 2-methoxyestradiol], the IC50 with tubulin is 14.2 µM.

In the case of `COc1cc(OC)cc(C(=O)/C=C/c2cc(=O)oc3c2ccc2ccccc23)c1` [Compound 26, (E)-4-(3-(3,5-Dimethoxyphenyl)-3-oxoprop-1-en-1-yl)-2H-benzo[h]chromen-2-one], the melting point was in the range of 272 to 273 °C. Moreover, the IC50 in data set [1] was 17.2 ± 1.75 µM. In data set [2], the IC50 is > 20 µM. For the same compound, the IC50 in data set [3] is > 20 µM. The IC50 in data set [4] was found to be 16.6 ± 1.25 µM. Besides, the IC50 in data set [5] is > 20 µM.

As for `COc1ccc(C(=O)/C=C/c2cc(=O)oc3c2ccc2ccccc23)cc1` [Compound 27, (E)-4-(3-(4-Methoxyphenyl)-3-oxoprop-1-enyl)-2H-benzo[h]chromen-2-one], the IC50 is > 20 µM in data set [1]; > 20 µM in data set [2]; 17.4 ± 2.72 µM in data set [3]; > 20 µM in data set [4]; > 20 µM in data set [5].

Consider `COc1ccc(C(=O)/C=C/c2cc(=O)oc3c2ccc2c(OC)cccc23)cc1` [Compound 28, (E)-7-Methoxy-4-(3-(4-methoxyphenyl)-3-oxoprop-1-enyl)-2H-benzo[h]chromen-2-one], for which the melting point fell in the range of 236 to 237 °C. The IC50 in data set [1] is 18.6 ± 2.3 µM. Moreover, the IC50 in data set [2] is > 20 µM. Further, in data set [3], the IC50 is > 20 µM. Also, in data set [4], the IC50 was > 20 µM. The IC50 in data set [5] was > 20 µM.

Turning to `COc1cccc2c1ccc1c(/C=C/C(=O)c3ccccc3)cc(=O)oc12` [Compound 29, (E)-7-Methoxy-4-(3-oxo-3-phenylprop-1-en-1-yl)-2H-benzo[h]chromen-2-one], the melting point was 180 to 182 °C. Moreover, the IC50 in data set [1] was > 20 µM. The IC50 in data set [2] is > 20 µM. Moreover, in data set [3], the IC50 was > 20 µM. For the same compound, the IC50 in data set [4] was > 20 µM. In addition, the IC50 in data set [5] is > 20 µM.

Consider `COc1cc(OC)cc(C(=O)/C=C/c2cc(=O)oc3c2ccc2c(OC)cccc23)c1` [Compound 30, (E)-4-(3-(3,5-Dimethoxyphenyl)-3-oxoprop-1-en-1-yl)-7-methoxy-2H-benzo[h]chromen-2-one], for which the IC50 was 6.8 ± 1.48 µM in data set [1], 8.5 ± 1.12 µM in data set [4] and > 20 µM in data set [5].

On to `COc1cc(C(=O)/C=C/c2cc(=O)oc3c2ccc2ccccc23)cc(OC)c1OC` [Compound 31, (E)-4-(3-Oxo-3-(3,4,5-trimethoxyphenyl)prop-1-enyl)-2H-benzo[h]chromen-2-one], for which the IC50 is 14.4 ± 1.68 µM in data set [1]; > 20 µM in data set [2]; > 20 µM in data set [3]; 15.7 ± 1.01 µM in data set [4]; > 20 µM in data set [5].

Take `O=C(/C=C/c1cc(=O)oc2c1ccc1ccccc12)c1ccccc1` [Compound 32, (E)-4-(3-Oxo-3-phenylprop-1-enyl)-2H-benzo[h]chromen-2-one]: the melting point was in the range of 245 to 246 °C. Further, the IC50 in data set [1] is > 20 µM. For the same compound, in data set [2], the IC50 was > 20 µM. For the same compound, the IC50 in data set [3] was > 20 µM. For the same compound, in data set [4], the IC50 was > 20 µM. The IC50 in data set [5] was > 20 µM.

Consider `COc1cc(C(=O)/C=C/c2cc(=O)oc3c2ccc2c(OC)cccc23)cc(OC)c1OC` [Compound 33, (E)-7-Methoxy-4-(3-oxo-3-(3,4,5-trimethoxyphenyl)prop-1-enyl)-2H-benzo[h] chromen-2-one], for which the melting point was > 260 °C. Besides, in data set [1], the IC50 came to 16.3 ± 2.3 µM. Besides, the IC50 in data set [2] was > 20 µM. The IC50 in data set [3] is > 20 µM. The IC50 in data set [4] was > 20 µM. Moreover, the IC50 in data set [5] was > 20 µM.

On to `O=C(/C=C/c1cc(=O)oc2c1ccc1ccccc12)c1ccc(Cl)cc1` [Compound 34], for which the IC50 in data set [1], in data set [2], in data set [3], in data set [4] and in data set [5] was > 20 µM throughout.

Take `COc1cccc2c1ccc1c(/C=C/C(=O)c3ccc(Cl)cc3)cc(=O)oc12` [Compound 35]: the IC50 in data set [1], in data set [2], in data set [3], in data set [4] and in data set [5] was > 20 µM throughout.

As to `O=C(/C=C/c1cc(=O)oc2c1ccc1ccccc12)c1ccc(Cl)c(Cl)c1` [Compound 36], the IC50 was > 20 µM in data set [1]; 16.8 ± 3.14 µM in data set [2]; 19.2 ± 3.12 µM in data set [3]; > 20 µM in data set [4]; > 20 µM in data set [5].

Take `COc1cccc2c1ccc1c(/C=C/C(=O)c3ccc(Cl)c(Cl)c3)cc(=O)oc12` [Compound 37]: the IC50 in data set [1] is > 20 µM; in data set [2], 17.2 ± 2.88 µM; in data set [3], 18.6 ± 2.56 µM; in data set [4] it was > 20 µM; in data set [5], > 20 µM.

These data come from article PMC10511752, “Natural product-inspired synthesis of coumarin–chalcone hybrids as potential anti-breast cancer agents” (Frontiers in Pharmacology, 2023).
